Consider 27 compounds from article PMC6767204, “Synthesis and Biological Evaluation of Disubstituted Pyrimidines as Selective 5-HT2C Agonists” (Molecules, 2019).

In general, Ki refers to the dissociation constant of the complex between target and ligand, obtained from inhibition or displacement. A higher Ki goes with weaker binding.

Where a name gives a salt, the structure may show the parent alone. Bounds are passed on as bounds.

One test addresses T1, 5-HT2C receptor (Homo sapiens, UniProt P28335).
T1 sequence (P28335 33-458): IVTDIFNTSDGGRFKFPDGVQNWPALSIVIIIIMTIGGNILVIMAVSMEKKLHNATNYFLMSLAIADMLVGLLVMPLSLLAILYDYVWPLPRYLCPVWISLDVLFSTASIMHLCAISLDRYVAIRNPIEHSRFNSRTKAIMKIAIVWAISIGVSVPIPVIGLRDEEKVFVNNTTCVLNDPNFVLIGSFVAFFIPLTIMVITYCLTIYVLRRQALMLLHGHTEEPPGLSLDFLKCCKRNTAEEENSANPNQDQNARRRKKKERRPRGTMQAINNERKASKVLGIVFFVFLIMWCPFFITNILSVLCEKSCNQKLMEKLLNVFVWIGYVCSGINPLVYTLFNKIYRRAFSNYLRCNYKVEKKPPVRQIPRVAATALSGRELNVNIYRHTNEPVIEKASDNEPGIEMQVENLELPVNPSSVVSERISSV
Briefly: 5-HT2C receptor cell-based functional assay (agonist mode, fluorescence-based). Conditions: 1 μM; Table 1 footnote a.
Experimental: The synthesized compounds were tested in agonist mode with the 5-HT2C receptor assay using recombinant human HEK-293 cells serviced by either Eurofins Cerep or DGMIF (Daegu-Gyeongbuk Medical Innovation Foundation). All the experiments were duplicated.
As for `C[C@H]1CNCCc2ccc(Cl)cc21` [Lorcaserin (1), Lorcaserin, reference compound], the “%activation value at 1 μM” value is 94^a %.

Still in this test, the particulars now being: HEK293, read-out: %activation (10 μM).
Consider `C[C@@H]1CNCCN1c1ncc(Oc2cccc(F)c2)cn1` [9g], for which the activation at 10 µM worked out at 35%.
On the same count and under the same terms, for `C[C@@H]1CNCCN1c1ncc(OCc2cccc(F)c2)cn1` [9h, (R)-4-(5-((3-fluorobenzyl)oxy)pyrimidin-2-yl)-3-methylpiperazine-1-ium∙hydrochloride] the value was 48%; for `C[C@@H]1CNCCN1c1ncc(OCCc2cccc(F)c2)cn1` [9i], 40%; for `C[C@@H]1CNCCN1c1ncc(Oc2ccc(F)cc2)cn1` [9j], 26%.
For `C[C@@H]1CNCCN1c1ncc(OCc2ccc(F)cc2)cn1` [9k, (R)-4-(5-((4-fluorobenzyl)oxy)pyrimidin-2-yl)-3-methylpiperazin-1-ium∙hydrochloride], the activation at 10 µM turned out to be 48%.
Same read-out and setting: the result for `C[C@@H]1CNCCN1c1ncc(OCCc2ccc(F)cc2)cn1` [9l] reads 32%.
Same read-out and setting: the result for `Fc1cccc(Oc2cnc(N3CCCNCC3)nc2)c1` [9m] reads 16%; that for `Fc1cccc(COc2cnc(N3CCCNCC3)nc2)c1` [9n, 4-(5-((3-fluorobenzyl)oxy)pyrimidin-2-yl)-1,4-diazepan-1-ium∙hydrochloride], -1%; that for `Fc1cccc(CCOc2cnc(N3CCCNCC3)nc2)c1` [9o], 3%.
Still for that read-out and setting: the result for `Fc1ccc(Oc2cnc(N3CCCNCC3)nc2)cc1` [9p] reads 14%; that for `Fc1ccc(COc2cnc(N3CCCNCC3)nc2)cc1` [9q, 4-(5-((4-fluorobenzyl)oxy)pyrimidin-2-yl)-1,4-diazepan-1-ium∙hydrochloride], 16%; that for `Fc1ccc(CCOc2cnc(N3CCCNCC3)nc2)cc1` [9r], -1%.

Staying with this test, now noted: HEK293, read-out: %activation (10 μM), 10 μM; recombinant human HEK-293 cells; Table 1.
Consider `Fc1cccc(Oc2cnc(N3CCNCC3)nc2)c1` [9a], for which the activation at 10 µM was found to be 7%.
Still for that read-out and setting: for `Fc1cccc(COc2cnc(N3CCNCC3)nc2)c1` [9b, 4-(5-((3-fluorobenzyl)oxy)pyrimidin-2-yl)piperazin-1-ium∙hydrochloride] the value was over 50%.
The same measure, in the same setting: the result for `Fc1cccc(CCOc2cnc(N3CCNCC3)nc2)c1` [9c] reads 15%.
As to `Fc1ccc(Oc2cnc(N3CCNCC3)nc2)cc1` [9d], the activation at 10 µM came out at 5%.
Same read-out and setting: for `Fc1ccc(COc2cnc(N3CCNCC3)nc2)cc1` [9e, 4-(5-((4-fluorobenzyl)oxy)pyrimidin-2-yl)piperazin-1-ium∙hydrochloride] the value was 18%; for `Fc1ccc(CCOc2cnc(N3CCNCC3)nc2)cc1` [9f], 4%.

The test is the same for the next values; noted with them: Table 2; serotonin as reference compound.
On to `C[C@@H](Oc1nc(N2CCC3(CCNC3)C2)ncc1F)c1cccc(F)c1` (stereo partly drawn) [10b, 2-(5-fluoro-4-((R)-1-(3-fluorophenyl)ethoxy)pyrimidin-2-yl)-2,7-diazaspiro[4.4]nonane], for which the “%activation” value came to 78.2%.
The same measure, in the same setting: for `C[C@@H](Oc1nc(N2C[C@H]3CNC[C@H]3C2)ncc1F)c1cccc(F)c1` [10c, (3aR,6aS)-2-(5-fluoro-4-((R)-1-(3-fluorophenyl)ethoxy)pyrimidin-2-yl)octahydropyrrolo[3,4-c]pyrrole] the value was 29.5%.
Same read-out and setting: the result for `C[C@@H](Oc1nc(N[C@@H]2CCNC2)ncc1F)c1cccc(F)c1` [10d, 5-fluoro-4-((R)-1-(3-fluorophenyl)ethoxy)-N-((R)-pyrrolidin-3-yl)pyrimidin-2-amine] reads 16.4%; that for `C[C@@H](Oc1nc(N[C@H]2CCNC2)ncc1F)c1cccc(F)c1` [10e, 5-fluoro-4-((R)-1-(3-fluorophenyl)ethoxy)-N-((S)-pyrrolidin-3-yl)pyrimidin-2-amine], 7.7%; that for `C[C@@H](Oc1nc(N2C[C@H]3CNC[C@H]3C2)ncc1F)c1ccc(F)cc1` [10h, (3aR,6aS)-2-(5-fluoro-4-((R)-1-(4-fluorophenyl)ethoxy)pyrimidin-2-yl)octahydropyrrolo[3,4-c]pyrrole], 10.1%.
Still for that read-out and setting: the result for `C[C@@H](Oc1nc(N[C@H]2CCNC2)ncc1F)c1ccc(F)cc1` [10j, 5-Fluoro-4-((R)-1-(4-fluorophenyl)ethoxy)-N-((S)-pyrrolidin-3-yl)pyrimidin-2-amine] reads 0.1%.

The target of the next test is T1, 5-HT2C receptor. The test is described as follows: 5-HT receptor radioligand binding affinity assay, 2C. The arrangement: expressed in transfected cells. The settings on record: Table 2. The procedure: Eleven dilutions (5 x assay concentration) of the test and reference compounds (Table S1) were prepared in standard binding buffer (50 mM tris(hydroxymethyl)-aminomethane–HCl (Tris-HCl), 10 mM MgCl2, 1 mM ethylenediaminetetraacetate (EDTA), pH 7.4) by serial dilution: 0.05 nM, 0.5 nM, 1.5 nM, 5 nM, 15 nM, 50 nM, 150 nM, 500 nM, 1.5 μM, 5 μM, and 50 μM. The radioligand (Table S1) was diluted to five times the assay concentration in standard binding buffer. Aliquots (50 μL) of the radioligand were dispensed into the wells of a 96-well plate containing 100 μL of standard binding buffer. Triplicate aliquots (50 μL) of the test and reference compound dilutions were then added. Finally, crude membrane fractions (50 μL) of cells (HEK293 or CHO) expressing human recombinant receptors were dispensed into each well. A total 250 μL of the reaction mixtures was incubated at room temperature and shielded from light for 1.5 h, then harvested by rapid filtration onto Whatman GF/B glass fiber filters presoaked with 0.3% polyethyleneimine, by using a 96-well Brandel harvester.
Four rapid washes were performed with chilled standard binding buffer (500 μL) to decrease nonspecific binding. Filters were placed in 6 mL scintillation tubes and allowed to dry overnight. The next day, 4 ml of EcoScint scintillation cocktail (National Diagnostics) was added to each tube. The tubes were capped, labeled, and counted by liquid scintillation counting. The filter mats were dried, and the scintillant was melted onto the filters, then the radioactivity retained on the filters was counted in a Microbeta scintillation counter. The IC50 values were obtained by using the Prism 4.0 program (GraphPad Software, San Diego, CA) and converted into Ki values. Each compound was tested in triplicate at least.
3. Radioligands and reference compounds for binding assay
Table S1. A list of 5-HT receptor radioligands and reference compounds for binding assay.
Receptor subtype Radioligand Reference compound
1A [3H]8-OH-DPAT Methysergide
2A [3H]Ketanserin Chlorpromazine
2C [3H]Mesulergine Chlorpromazine
In turn, `C[C@@H](Oc1nc(N2C[C@H]3CNC[C@H]3C2)ncc1F)c1cccc(F)c1` [10c, (3aR,6aS)-2-(5-fluoro-4-((R)-1-(3-fluorophenyl)ethoxy)pyrimidin-2-yl)octahydropyrrolo[3,4-c]pyrrole] yielded a Ki of 295 nM.
Same read-out and setting: for `C[C@@H](Oc1nc(N[C@@H]2CCNC2)ncc1F)c1cccc(F)c1` [10d, 5-fluoro-4-((R)-1-(3-fluorophenyl)ethoxy)-N-((R)-pyrrolidin-3-yl)pyrimidin-2-amine] the value was 119 nM.
For `C[C@@H](Oc1nc(N[C@H]2CCNC2)ncc1F)c1cccc(F)c1` [10e, 5-fluoro-4-((R)-1-(3-fluorophenyl)ethoxy)-N-((S)-pyrrolidin-3-yl)pyrimidin-2-amine], the Ki came to 1260 nM.
The same measure, in the same setting: the result for `C[C@@H](Oc1nc(N2CCC3(CCNC3)C2)ncc1F)c1ccc(F)cc1` (stereo partly drawn) [10g, 2-(5-fluoro-4-((R)-1-(4-fluorophenyl)ethoxy)pyrimidin-2-yl)-2,7-diazaspiro[4.4]nonane] reads 232 nM; that for `C[C@@H](Oc1nc(N2C[C@H]3CNC[C@H]3C2)ncc1F)c1ccc(F)cc1` [10h, (3aR,6aS)-2-(5-fluoro-4-((R)-1-(4-fluorophenyl)ethoxy)pyrimidin-2-yl)octahydropyrrolo[3,4-c]pyrrole], 466 nM.
`C[C@@H](Oc1nc(N[C@@H]2CCNC2)ncc1F)c1ccc(F)cc1` [10i, 5-fluoro-4-((R)-1-(4-fluorophenyl)ethoxy)-N-((R)-pyrrolidin-3-yl)pyrimidin-2-amine] displayed a Ki of 120 nM.
